Source: patent US20160052937A1, “Tetrahydroimidazo[1,5-d][1,4]oxazepine compound” (Eisai R&D Management Co., Ltd., priority 2014, published 2016)

Target: T1, human metabotropic glutamate receptor 2 (mGluR2) (Homo sapiens, UniProt Q14416)
T1 construct: expressed in transfected cells; co-expressing human SLC1A3), cell membrane fraction
Experiment: [35S]GTPγS binding assay (Affinity to mGluR2)
Format: biochemical
Settings: cell membrane fraction of HEK293 cells stably expressing human mGluR2; glutamic acid 10 μM
Experimental: (Preparation of Cell Membrane Fraction of HEK293 Cells Stably Expressing Human Metabotropic Glutamate Receptor 2 (mGluR2))
HEK293 cells stably expressing human mGluR2 and human glutamate transporter SLC1A3 were cultured in a Dulbecco's modified Eagle's medium with 10% fetal bovine serum (50 units/mL of penicillin, 50 μg/mL of streptomycin, 60 μg/mL of geneticin, 400 μg/mL of hygromycin B and 2 mM of glutamine) at 37° C. under 5% CO2. Confluent cell cultures were washed twice with PBS(−), and then scraped off with a cell scraper, and subjected to centrifugal separation at 4° C. and 1500 rpm for 5 minutes for collecting cells. The centrifuged sediment (cell pellet) was homogenized in a 20 mM HEPES buffer containing 10 mM EDTA (pH 7.4) by using sonicator and centrifuged at 4° C. and 1500×g for 30 minutes. The supernatant (soluble fraction) was subjected to the centrifugal separation at 4° C. and 40,000×g for 30 minutes, and thus, insoluble fraction was obtained. After additional centrifugally washing the obtained fraction with 20 mM HEPES buffer containing 10 mM EDTA (pH 7.4), the pellet was centrifugally suspended with a 20 mM HEPES buffer containing 0.1 mM EDTA, and the cell membrane fraction was obtained by the centrifugal separation at 4° C. and 40,000×g for 30 minutes. The thus obtained cell membrane fraction was suspended in a 20 mM HEPES buffer containing 0.1 mM EDTA in a protein concentration of 3 mg/mL, which was stored at −80° C.
([^35S]GTPγS binding assay)
The frozen cell membrane fraction prepared as described above was thawed before use, and the resultant was diluted with a buffer for a binding assay (final concentrations: 20 mM HEPES, 100 mM NaCl, 1 mM MgCl2, 3 μM GDP, 300 μg/mL saponin, 0.1% BSA). The compound of each example was added to a cell membrane fraction containing 1.8 to 3 μg/assay of membrane protein on a plate, followed by incubation at room temperature for 30 minutes. Thereafter, with glutamic acid (in a final concentration of 10 μM) added thereto, incubation was performed at room temperature for 15 minutes, and thereafter, [^35S]GTPγS (in a final concentration of 0.8 kBq) and 588 μg WGA-SPA beads were added thereto, followed by incubation at room temperature for 1 hour. After the incubation, the plate was subjected to the centrifugal separation at 2,500 rpm and room temperature, and then, membrane cell binding radioactivity was measured with a top count.
A [^35S]GTPγS binding amount obtained by performing the above-described reaction in the absence of glutamic acid was defined as nonspecific binding, and a difference from a [^35S]GTPγS binding amount obtained in the presence of glutamic acid was defined as specific binding. On the basis of ratios of inhibiting the specific binding at various concentrations of the compounds of the respective examples, inhibition curves were obtained. Concentrations of the compounds of the respective examples at which the specific [^35S]GTPγS binding amount was suppressed by 50% (IC50 values) were calculated on the basis of the inhibition curves and shown in Table 3.

T1 sequence (Q14416 19-872): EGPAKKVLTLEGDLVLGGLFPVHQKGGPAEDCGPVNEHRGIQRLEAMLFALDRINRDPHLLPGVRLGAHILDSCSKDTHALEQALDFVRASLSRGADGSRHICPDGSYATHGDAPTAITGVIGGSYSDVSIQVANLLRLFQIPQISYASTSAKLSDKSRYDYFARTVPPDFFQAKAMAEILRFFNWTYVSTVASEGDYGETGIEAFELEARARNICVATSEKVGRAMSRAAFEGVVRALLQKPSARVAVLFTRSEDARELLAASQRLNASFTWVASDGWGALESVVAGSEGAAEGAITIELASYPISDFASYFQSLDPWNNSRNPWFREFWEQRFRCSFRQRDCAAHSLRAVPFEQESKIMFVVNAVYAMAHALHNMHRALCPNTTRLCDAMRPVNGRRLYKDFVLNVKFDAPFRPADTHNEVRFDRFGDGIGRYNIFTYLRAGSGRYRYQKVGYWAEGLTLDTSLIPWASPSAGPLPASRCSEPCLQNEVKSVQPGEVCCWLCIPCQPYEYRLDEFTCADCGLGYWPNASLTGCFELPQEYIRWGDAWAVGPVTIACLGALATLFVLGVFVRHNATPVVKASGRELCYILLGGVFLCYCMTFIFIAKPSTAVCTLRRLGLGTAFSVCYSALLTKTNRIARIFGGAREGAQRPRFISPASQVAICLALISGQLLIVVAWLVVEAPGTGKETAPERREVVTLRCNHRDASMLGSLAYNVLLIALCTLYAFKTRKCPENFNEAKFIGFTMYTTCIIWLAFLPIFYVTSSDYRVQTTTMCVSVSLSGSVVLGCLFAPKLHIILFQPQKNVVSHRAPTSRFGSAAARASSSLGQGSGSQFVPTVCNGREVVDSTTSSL

IC50 | Structure (SMILES)
3.3 nM | CC(C)NS(=O)(=O)c1ccc(-c2nc(-c3ccc(OCF)cc3)n3c2CCO[C@H](C)C3)cc1 [Example 4]
2.7 nM | C[C@@H]1Cn2c(-c3ccc(OCF)cc3)nc(-c3ccc(S(=O)(=O)NC(C)(C)C)cc3)c2CCO1 [Example 5]
3.2 nM | CCOc1ccc(-c2nc(-c3ccc(S(=O)(=O)NC(C)C)cc3)c3n2C[C@@H](C)OCC3)cc1 [Example 6]
3.6 nM | CCOc1ccc(-c2nc(-c3ccc(S(=O)(=O)NC(C)(C)C)cc3)c3n2C[C@@H](C)OCC3)cc1 [Example 7]
2.7 nM | C[C@@H]1Cn2c(-c3ccc(OC(F)F)cc3)nc(-c3ccc(S(=O)(=O)NC(C)(C)C)cc3)c2CCO1 [Example 9]
1.8 nM | COc1ccc(-c2nc(-c3ccc(S(=O)(=O)NC(C)(C)C)cc3)c3n2C[C@@H](C)OCC3)cc1 [Example 10]
7.1 nM | CC(C)NS(=O)(=O)c1ccc(-c2nc(-c3ccc(OC4COC4)cc3)n3c2CCOC(C)C3)cc1 (centres unmarked) [Example 11]
1.4 nM | CC(C)NS(=O)(=O)c1ccc(-c2nc(-c3ccc(OC(F)F)cc3)n3c2CCO[C@H](C)C3)cc1 [Example 12]
4 nM | C[C@@H]1Cn2c(-c3ccc(F)cc3)nc(-c3ccc(S(=O)(=O)NC(C)(C)C)cc3)c2CCO1 [Example 13]
9.8 nM | CNS(=O)(=O)c1ccc(-c2nc(-c3ccc(F)cc3)n3c2CCO[C@H](C)C3)cc1 [Example 14]
4.1 nM | CCNS(=O)(=O)c1ccc(-c2nc(-c3ccc(F)cc3)n3c2CCO[C@H](C)C3)cc1 [Example 15]
4.2 nM | C[C@@H]1Cn2c(-c3ccc(F)cc3)nc(-c3ccc(S(=O)(=O)NC4CC4)cc3)c2CCO1 [Example 16]
2.3 nM | CC1Cn2c(-c3ccc(F)cc3)nc(-c3ccc(S(=O)(=O)NC4(C)CCC4)cc3)c2CCO1 (centres unmarked) [Example 17]
3.6 nM | C[C@@H]1Cn2c(-c3ccc(OCF)cc3)nc(-c3ccc(S(=O)(=O)NC4CC4)cc3)c2CCO1 [Example 18]
6.3 nM | C[C@@H]1Cn2c(-c3ccc(OCF)cc3)nc(-c3ccc(S(=O)(=O)NC4CCC4)cc3)c2CCO1 [Example 19]
21.8 nM | CNS(=O)(=O)c1ccc(-c2nc(-c3ccc(OCF)cc3)n3c2CCO[C@H](C)C3)cc1 [Example 20]
11.2 nM | CCNS(=O)(=O)c1ccc(-c2nc(-c3ccc(OCF)cc3)n3c2CCO[C@H](C)C3)cc1 [Example 21]
3.1 nM | CC1Cn2c(-c3ccc(OCF)cc3)nc(-c3ccc(S(=O)(=O)NC4(C)CCC4)cc3)c2CCO1 (centres unmarked) [Example 22]
1.6 nM | C[C@@H]1Cn2c(-c3ccc(OC(F)F)cc3)nc(-c3ccc(S(=O)(=O)NC4CC4)cc3)c2CCO1 [Example 23]

IC50 | Structure (SMILES)
2.7 nM | C[C@@H]1Cn2c(-c3ccc(OC(F)F)cc3)nc(-c3ccc(S(=O)(=O)NC4CCC4)cc3)c2CCO1 [Example 24]
3.1 nM | CNS(=O)(=O)c1ccc(-c2nc(-c3ccc(OC(F)F)cc3)n3c2CCO[C@H](C)C3)cc1 [Example 25]
3.7 nM | CCNS(=O)(=O)c1ccc(-c2nc(-c3ccc(OC(F)F)cc3)n3c2CCO[C@H](C)C3)cc1 [Example 26]
2.3 nM | CC1Cn2c(-c3ccc(OC(F)F)cc3)nc(-c3ccc(S(=O)(=O)NC4(C)CCC4)cc3)c2CCO1 (centres unmarked) [Example 27]
7.4 nM | COc1ccc(-c2nc(-c3ccc(S(=O)(=O)NC4CC4)cc3)c3n2C[C@@H](C)OCC3)cc1 [Example 28]
26.8 nM | CNS(=O)(=O)c1ccc(-c2nc(-c3ccc(OC)cc3)n3c2CCO[C@H](C)C3)cc1 [Example 29]
7.4 nM | CCNS(=O)(=O)c1ccc(-c2nc(-c3ccc(OC)cc3)n3c2CCO[C@H](C)C3)cc1 [Example 30]
3 nM | COc1ccc(-c2nc(-c3ccc(S(=O)(=O)NC4(C)CCC4)cc3)c3n2CC(C)OCC3)cc1 (centres unmarked) [Example 31]
3.9 nM | CCOc1ccc(-c2nc(-c3ccc(S(=O)(=O)NC4CC4)cc3)c3n2C[C@@H](C)OCC3)cc1 [Example 32]
3 nM | CCOc1ccc(-c2nc(-c3ccc(S(=O)(=O)NC4CCC4)cc3)c3n2C[C@@H](C)OCC3)cc1 [Example 33]
7 nM | CCOc1ccc(-c2nc(-c3ccc(S(=O)(=O)NC)cc3)c3n2C[C@@H](C)OCC3)cc1 [Example 34]
1.8 nM | CCNS(=O)(=O)c1ccc(-c2nc(-c3ccc(OCC)cc3)n3c2CCO[C@H](C)C3)cc1 [Example 35]
1.3 nM | CCOc1ccc(-c2nc(-c3ccc(S(=O)(=O)NC4(C)CCC4)cc3)c3n2C[C@@H](C)OCC3)cc1 [Example 36]
2.3 nM | C[C@@H]1Cn2c(-c3ccc(F)cc3)nc(-c3ccc(S(=O)(=O)NC4CCC4)cc3)c2CCO1 [Example 37]
2.2 nM | O=S(=O)(NC1CCC1)c1ccc(-c2nc(-c3ccc(F)cc3)n3c2CCO[C@H](CF)C3)cc1 [Example 38]
0.9 nM | CC1(NS(=O)(=O)c2ccc(-c3nc(-c4ccc(F)cc4)n4c3CCO[C@H](CF)C4)cc2)CCC1 [Example 39]
2.6 nM | CC(C)NS(=O)(=O)c1ccc(-c2nc(-c3ccc(F)cc3)n3c2CCO[C@H](CF)C3)cc1 [Example 40]
2.1 nM | CC(C)(C)NS(=O)(=O)c1ccc(-c2nc(-c3ccc(F)cc3)n3c2CCO[C@H](CF)C3)cc1 [Example 41]
9.8 nM | CCNS(=O)(=O)c1ccc(-c2nc(-c3ccc(F)cc3)n3c2CCO[C@H](CF)C3)cc1 [Example 42]

IC50 | Structure (SMILES)
3.1 nM | COc1ccc(-c2nc(-c3ccc(S(=O)(=O)NC(C)C)cc3)c3n2C[C@@H](CF)OCC3)cc1 [Example 43]
2.3 nM | COc1ccc(-c2nc(-c3ccc(S(=O)(=O)NC4CCC4)cc3)c3n2C[C@@H](CF)OCC3)cc1 [Example 44]
2.2 nM | COc1ccc(-c2nc(-c3ccc(S(=O)(=O)NC4(C)CCC4)cc3)c3n2C[C@@H](CF)OCC3)cc1 [Example 45]
6 nM | CCNS(=O)(=O)c1ccc(-c2nc(-c3ccc(OC)cc3)n3c2CCO[C@H](CF)C3)cc1 [Example 46]
6.3 nM | COc1ccc(-c2nc(-c3ccc(S(=O)(=O)NC4CC4)cc3)c3n2C[C@@H](CF)OCC3)cc1 [Example 47]
11.2 nM | CCOc1ccc(-c2nc(-c3ccc(S(=O)(=O)NC4CC4)cc3)c3n2C[C@@H](CF)OCC3)cc1 [Example 49]
9.5 nM | CCNS(=O)(=O)c1ccc(-c2nc(-c3ccc(OCC)cc3)n3c2CCO[C@H](CF)C3)cc1 [Example 50]
11.9 nM | CC(C)NS(=O)(=O)c1ccc(-c2nc(-c3ccc(OCF)cc3)n3c2CCO[C@H](CF)C3)cc1 [Example 51]
4.1 nM | CC(C)(C)NS(=O)(=O)c1ccc(-c2nc(-c3ccc(OCF)cc3)n3c2CCO[C@H](CF)C3)cc1 [Example 52]
4.7 nM | CC(C)NS(=O)(=O)c1ccc(-c2nc(-c3ccc(OC(F)F)cc3)n3c2CCO[C@H](CF)C3)cc1 [Example 53]
4.9 nM | CC(C)(C)NS(=O)(=O)c1ccc(-c2nc(-c3ccc(OC(F)F)cc3)n3c2CCO[C@H](CF)C3)cc1 [Example 54]
2.9 nM | CCOc1ccc(-c2nc(-c3ccc(S(=O)(=O)NC(C)(C)C)cc3)c3n2C[C@@H](CF)OCC3)cc1 [Example 55]
10.7 nM | CCNS(=O)(=O)c1ccc(-c2nc(-c3ccc(OCF)cc3)n3c2CCO[C@H](CF)C3)cc1 [Example 56]
4.1 nM | CC1(NS(=O)(=O)c2ccc(-c3nc(-c4ccc(OCF)cc4)n4c3CCO[C@H](CF)C4)cc2)CCC1 [Example 57]
15.3 nM | O=S(=O)(NC1CCC1)c1ccc(-c2nc(-c3ccc(OCF)cc3)n3c2CCO[C@H](CF)C3)cc1 [Example 58]
3.9 nM | CCNS(=O)(=O)c1ccc(-c2nc(-c3ccc(OC(F)F)cc3)n3c2CCO[C@H](CF)C3)cc1 [Example 59]
4.6 nM | O=S(=O)(NC1CCC1)c1ccc(-c2nc(-c3ccc(OC(F)F)cc3)n3c2CCO[C@H](CF)C3)cc1 [Example 60]
3.7 nM | CC1(NS(=O)(=O)c2ccc(-c3nc(-c4ccc(OC(F)F)cc4)n4c3CCO[C@H](CF)C4)cc2)CCC1 [Example 61]
